This passage reports EC50 results from BindingDB's records for doi:10.7270/Q2QF8R9S (Vanderbilt Screening Center For Gpcrs, Ion Channels and …, 2010).

As usually defined, the EC50 is the concentration at which the effect is half-maximal.

For this experiment, the target named is T1, Muscarinic acetylcholine receptor M1 (Rattus norvegicus, UniProt P08482).
T1 sequence (P08482 whole entry): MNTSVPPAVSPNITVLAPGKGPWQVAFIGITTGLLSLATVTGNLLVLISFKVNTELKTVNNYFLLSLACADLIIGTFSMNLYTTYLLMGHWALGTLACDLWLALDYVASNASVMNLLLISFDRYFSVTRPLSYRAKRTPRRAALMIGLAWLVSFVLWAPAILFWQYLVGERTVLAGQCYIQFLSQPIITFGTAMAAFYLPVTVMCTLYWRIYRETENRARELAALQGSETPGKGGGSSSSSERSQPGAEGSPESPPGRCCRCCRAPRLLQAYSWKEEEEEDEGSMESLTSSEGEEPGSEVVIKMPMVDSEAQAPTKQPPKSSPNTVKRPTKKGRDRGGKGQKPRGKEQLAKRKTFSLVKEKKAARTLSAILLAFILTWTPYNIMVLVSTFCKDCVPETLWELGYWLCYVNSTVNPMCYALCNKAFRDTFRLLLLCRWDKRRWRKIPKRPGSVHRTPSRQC
The experiment can be described thus: rat M1 PAM analog potency, SAR follow-up, cell-based, calcium mobilization, CHO-K1 (AID 2651). In general terms: Calcium flux is commonly read through the fluorescence of an indicator in the cells.

As to `Cc1cc(NC(=O)CS(=O)(=O)c2cn(Cc3cccc(-c4ccc(Cl)nc4)c3)c3ccccc23)no1`, for the setting “inactive by the depositor's call”, the EC50 stood at 30 µM.
For `Cc1cc(NC(=O)CS(=O)(=O)c2cn(Cc3ccc(F)nc3)c3ccccc23)no1` [VU0404018], the EC50 was 10 µM.
The same measure, in the same setting: the value for `Cc1cc(NC(=O)CS(=O)(=O)c2cn(Cc3ccccc3Cl)c3ccccc23)no1` [2-[1-[(2-chlorophenyl)methyl]indol-3-yl]sulfonyl-N-(5-methyl-1,2-oxazol-3-yl)acetamide] was 10 µM; that for `Cc1cc(NC(=O)CS(=O)(=O)c2cn(Cc3cccc(Cl)c3)c3ccccc23)no1` [VU0366968-1] was 5.82 µM.
For `Cc1cc(NC(=O)CS(=O)(=O)c2cn(Cc3cccc(Br)c3)c3cc(F)cc(F)c23)no1` [2-[1-[(3-bromophenyl)methyl]-4,6-bis(fluoranyl)indol-3-yl]sulfonyl-N-(5-methyl-1,2-oxazol-3-yl)ethanamide], the EC50 came out at 5.37 µM.
Still for that read-out and setting: the figure for `Cc1cc(NC(=O)CS(=O)(=O)c2cn(Cc3cc(Br)ccc3F)c3ccccc23)no1` [2-[[1-[(5-bromo-2-fluorophenyl)methyl]-3-indolyl]sulfonyl]-N-(5-methyl-3-isoxazolyl)acetamide] is 1.38 µM.
Same read-out and setting: the figure for `Cc1cc(NC(=O)CS(=O)(=O)c2cn(Cc3cccc(-c4cn[nH]c4)c3)c3cc(F)cc(F)c23)no1` [VU0405645-1] is 1.85 µM.
`Cc1cc(NC(=O)CS(=O)(=O)c2cn(Cc3cc(-c4cc[nH]n4)ccc3F)c3ccccc23)no1` [2-[[1-[[2-fluoro-5-(1H-pyrazol-5-yl)phenyl]methyl]-3-indolyl]sulfonyl]-N-(5-methyl-3-isoxazolyl)acetamide]: the half-maximal effective concentration (EC50) amounted to 3.07 µM.
In the case of `COc1cccc(Cn2cc(S(=O)(=O)CC(=O)Nc3cc(C)on3)c3ccccc32)c1` [VU0366971-1], the concentration for a half-maximal effect (EC50) stood at 6.54 µM.
On the same count and under the same terms, the value for `Cc1cc(NC(=O)CS(=O)(=O)c2cn(Cc3cccc(Br)c3)c3ccccc23)no1` [2-[[1-[(3-bromophenyl)methyl]-3-indolyl]sulfonyl]-N-(5-methyl-3-isoxazolyl)acetamide] was 3.79 µM.
Turning to `Cc1cc(NC(=O)CS(=O)(=O)c2cn(Cc3cccc(Cl)c3F)c3ccccc23)no1`, the 50% effective concentration (EC50) was determined as 5.1 µM.
Consider `Cc1cc(NC(=O)CS(=O)(=O)c2cn(Cc3cccc(F)c3)c3ccccc23)no1` [2-[[1-[(3-fluorophenyl)methyl]-3-indolyl]sulfonyl]-N-(5-methyl-3-isoxazolyl)acetamide], for which the EC50 was found to be 5.22 µM.
Turning to `Cc1cc(NC(=O)CS(=O)(=O)c2cn(Cc3cccc(-c4cc[nH]n4)c3F)c3ccccc23)no1`, the EC50 is 4.4 µM.
`Cc1cc(NC(=O)CS(=O)(=O)c2cn(Cc3cccc(-c4cn[nH]c4)c3)c3ccccc23)no1`: the half-maximal effective concentration (EC50) was 2.19 µM.
Still for that read-out and setting: the value for `Cc1cc(NC(=O)CS(=O)(=O)c2cn(Cc3cccc(-c4ccn(C)n4)c3)c3ccccc23)no1` [VU0402606-1] was 3.21 µM.
